Measured values reported in US8829193B2, “PIM kinase inhibitors and methods of their use” (Novartis AG, priority 2008, dated 2014).
pEC50, pIC50: −log10 of the molar value.

Legend:
Pim1 kinase = Pim1 kinase (Homo sapiens (Human), UniProt P11309); test: Pim1 ATP depletion assay; assay type: biochemical; details: 20 μM ATP, 40 μM BAD peptide, 2.5 nM PIM1
Experimental: (§1) The activity of PIM1 is measured using a luciferase-luciferin based ATP detection reagent to quantify ATP depletion resulting from kinase-catalyzed phosphoryl transfer to a peptide substrate. Compounds to be tested are dissolved in 100% DMSO and directly distributed into white 384-well plates at 0.5 μl per well. […] After 15 minutes, 10 μl of 40 μM ATP in assay buffer is added. Final assay concentrations are 2.5 nM PIM1, 20 μM ATP, 40 μM BAD peptide and 2.5% DMSO. The reaction is performed until approximately 50% of the ATP is depleted, then stopped with the addition of 20 μl KinaseGlo Plus (Promega Corporation) solution. The stopped reaction is incubated for 10 minutes and the remaining ATP detected via luminescence on the Victor2 (Perkin Elmer).

Pim2 kinase = Pim2 kinase (Homo sapiens (Human), UniProt Q9P1W9); test: Pim2 ATP depletion assay; assay type: biochemical; details: 4 μM ATP, 10 μM BAD peptide, 5 nM PIM2
Pim2 kinase, sequence (Q9P1W9 whole entry): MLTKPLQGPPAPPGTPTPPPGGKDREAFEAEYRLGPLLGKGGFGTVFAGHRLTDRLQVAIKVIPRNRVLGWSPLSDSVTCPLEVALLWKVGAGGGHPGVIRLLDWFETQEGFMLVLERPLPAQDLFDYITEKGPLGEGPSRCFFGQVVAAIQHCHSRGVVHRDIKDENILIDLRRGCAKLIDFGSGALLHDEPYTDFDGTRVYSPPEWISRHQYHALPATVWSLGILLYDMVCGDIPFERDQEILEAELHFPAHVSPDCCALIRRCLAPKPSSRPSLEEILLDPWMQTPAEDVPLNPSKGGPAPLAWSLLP
Experimental: as §1, with “of PIM2” for “of PIM1”, “0.5 piper” for “0.5 μl per”, “of 8” for “of 40”, “are 5” for “are 2.5”, “nM PIM2, 4” for “nM PIM1, 20”, “ATP, 10” for “ATP, 40”

Pim3 kinase = Pim3 kinase (Homo sapiens (Human), UniProt Q86V86); test: Pim3 ATP depletion assay; assay type: biochemical; details: 40 μM ATP, 100 μM BAD peptide
Experimental: The activity of PIM3 is measured using a luciferase-luciferin based ATP detection reagent to quantify ATP depletion resulting from kinase-catalyzed phosphoryl transfer to a peptide substrate. Compounds to be tested are dissolved in 100% DMSO and directly distributed into white 384-well plates at 0.5 piper well. […] After 15 minutes, 10 μl of 80 μM ATP in assay buffer is added. Final assay concentrations are 5 nM PIM1, 40 μM ATP, 100 μM BAD peptide and 2.5% DMSO. The reaction is performed until approximately 50% of the ATP is depleted, then stopped by the addition of 20 μl KinaseGlo Plus (Promega Corporation) solution. The stopped reaction is incubated for 10 minutes and the remaining ATP detected via luminescence on the Victor2 (Perkin Elmer).

[1] = test system: KMS11 (human myeloma cell line); test: Cell Proliferation Assay; assay type: cell-based; details: KMS-11, 72 h, KMS11 cells, 3 days, Cell Titer-Glow
Experimental: KMS11 (human myeloma cell line), were cultured in IMDM supplemented with 10% FBS, sodium pyruvate and antibiotics. Cells were plated in the same medium at a density of 2000 cells per well into 96 well tissue culture plates, with outside wells vacant, on the day of assay. MM1.s (human myeloma cell line), were cultured in RPMI1640 supplemented with 10% FBS, sodium pyruvate and antibiotics. Cells were plated in the same medium at a density of 5000 cells per well into 96 well tissue culture plates, with outside wells vacant, on the day of assay.
Test compounds supplied in DMSO were diluted into DMSO at 500 times the desired final concentrations before dilution into culture media to 2 times final concentrations. Equal volumes of 2× compounds were added to the cells in 96 well plates and incubated at 37° C. for 3 days.
After 3 days plates were equilibrated to room temperature and equal volume of Cell Titer-Glow Reagent (Promega) was added to the culture wells. The plates were agitated briefly and luminescent signal was measured with luminometer.
Using the procedures for Cell Proliferation Assay described above, the EC50 concentration of compounds of the previous examples were determined in KMS11 cells as shown in the following table.

Pim1 kinase, sequence (P11309 whole entry): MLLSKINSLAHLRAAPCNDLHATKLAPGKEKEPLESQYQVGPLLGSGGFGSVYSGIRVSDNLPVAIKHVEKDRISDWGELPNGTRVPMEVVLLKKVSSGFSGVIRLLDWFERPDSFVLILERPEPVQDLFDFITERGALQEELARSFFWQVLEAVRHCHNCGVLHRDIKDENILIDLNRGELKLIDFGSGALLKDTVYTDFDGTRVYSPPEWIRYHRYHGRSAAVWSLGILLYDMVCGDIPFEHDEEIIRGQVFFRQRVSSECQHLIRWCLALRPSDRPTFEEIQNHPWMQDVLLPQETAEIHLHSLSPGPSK

Row | Compound | pIC50 (Pim1 kinase) | pIC50 (Pim2 kinase) | pIC50 (Pim3 kinase) | pEC50 [1]
1 | N[C@@H]1CN(c2ccncc2NC(=O)c2csc(-c3c(F)cccc3F)n2)CC[C@H]1O [Example 2, N-(4-((3R,4R)-3-amino-4-hydroxypiperidin-1-yl)pyridin-3-yl)-2-(2,6-difluorophenyl)thiazole-4-carboxamide] | 8.70 | 7.96 | 8.40 | 5.80
2 | N[C@@H]1CN(c2ccncc2NC(=O)c2csc(-c3c(F)cccc3F)n2)CC[C@@H]1O [Example 6, N-(4-((3R,4S)-3-amino-4-hydroxypiperidin-1-yl)pyridin-3-yl)-2-(2,6-difluorophenyl)thiazole-4-carboxamide] | 9.00 | 8.52 | 9.00 | 6.39
3 | CO[C@@H]1C[C@H](N)CN(c2ccncc2NC(=O)c2csc(-c3c(F)cccc3F)n2)C1 [Example 8, N-(4-((3S,5R)-3-amino-5-methoxypiperidin-1-yl)pyridin-3-yl)-2-(2,6-difluorophenyl)thiazole-4-carboxamide] | 7.68 | 7.34 | 7.46 | 5.33
4 | N[C@H]1C[C@@H](F)CN(c2ccncc2NC(=O)c2csc(-c3c(F)cccc3F)n2)C1 [Example 11, N-(4-((3S,5R)-3-amino-5-fluoropiperidin-1-yl)pyridin-3-yl)-2-(2,6-difluorophenyl)thiazole-4-carboxamide] | 8.40 | 7.26 | 8.10 | 5.21
5 | NC1CC(C(F)(F)F)CN(c2ccncc2NC(=O)c2csc(-c3c(F)cccc3F)n2)C1 (stereo not drawn) [Example 15, N-(4-(3-amino-5-(trifluoromethyl)piperidin-1-yl)pyridin-3-yl)-2-(2,6-difluorophenyl)thiazole-4-carboxamide] | 9.00 | 8.52 | 8.40 | 6.51
6 | NC1CC(CF)CN(c2ccncc2NC(=O)c2csc(-c3c(F)cccc3F)n2)C1 (stereo not drawn) [Example 16, N-(4-(3-amino-5-(fluoromethyl)piperidin-1-yl)pyridin-3-yl)-2-(2,6-difluorophenyl)thiazole-4-carboxamide] | 9.00 | 8.52 | 8.40 | 5.62
7 | CC1CCN(c2ccncc2NC(=O)c2csc(-c3c(F)cccc3F)n2)CC1N (stereo not drawn) [Example 19, N-(4-(3-amino-4-methylpiperidin-1-yl)pyridin-3-yl)-2-(2,6-difluorophenyl)thiazole-4-carboxamide] | 9.00 | 8.10 | 8.30 | 6.03
8 | CCO[C@@H]1C[C@H](N)CN(c2ccncc2NC(=O)c2csc(-c3c(F)cccc3F)n2)C1 [Example 23, N-(4-((3S,5R)-3-amino-5-ethoxypiperidin-1-yl)pyridin-3-yl)-2-(2,6-difluorophenyl)thiazole-4-carboxamide] | 7.25 | 7.07 | 7.07 | 5.18
9 | N[C@H]1C[C@@H](C(F)(F)F)CN(c2ccncc2NC(=O)c2csc(-c3c(F)cccc3F)n2)C1 [Example 27, N-(4-((3S,5R)-3-amino-5-(trifluoromethyl)piperidin-1-yl)pyridin-3-yl)-2-(2,6-difluorophenyl)thiazole-4-carboxamide] | 9.00 | 8.52 | 8.52 | 6.34
10 | Nc1sc(-c2c(F)cccc2F)nc1C(=O)Nc1cnccc1[C@@H]1CCC[C@H](N)C1 [Example 33, 5-amino-N-(4-((1R,3S)-3-aminocyclohexyl)pyridin-3-yl)-2-(2,6-difluorophenyl)thiazole-4-carboxamide] | 9.00 | – | – | 6.37

Next, values leading:

Row | pIC50 (Pim1 kinase) | pIC50 (Pim2 kinase) | pIC50 (Pim3 kinase) | pEC50 [1] | Compound
11 | 9.00 | 8.40 | 8.52 | 5.72 | Nc1sc(-c2c(F)cccc2F)nc1C(=O)Nc1cnccc1[C@@H]1CC[C@H](O)[C@H](N)C1 (stereo in doubt) [Example 38, 5-amino-N-(4-(3-amino-4-hydroxycyclohexyl)pyridin-3-yl)-2-(2,6-difluorophenyl)thiazole-4-carboxamide]
12 | – | – | – | 5.30 | N[C@H]1CCC[C@@H](c2ccncc2NC(=O)c2csc(-c3c(F)cccc3F)n2)C1 [Example 34, N-(4-((1R,3S)-3-aminocyclohexyl)pyridin-3-yl)-2-(2,6-difluorophenyl)thiazole-4-carboxamide]
13 | 9.00 | 8.52 | 8.52 | 6.25 | C[C@H]1CN(c2ccncc2NC(=O)c2csc(-c3c(F)cccc3F)n2)C[C@@H](N)[C@@H]1O [Example 36, N-(4-((3R,4R,5S)-3-amino-4-hydroxy-5-methylpiperidin-1-yl)pyridin-3-yl)-2-(2,6-difluorophenyl)thiazole-4-carboxamide]
14 | 8.40 | 7.57 | 8.10 | < 5.00 | C[C@H]1C[C@@H](c2ccncc2NC(=O)c2csc(-c3c(F)cccc3F)n2)C[C@@H](N)[C@@H]1O [Example 41, N-(4-((1R,3R,4R,5S)-3-amino-4-hydroxy-5-methylcyclohexyl)pyridin-3-yl)-2-(2,6-difluorophenyl)thiazole-4-carboxamide (and enantiomer)]
15 | 9.00 | – | 8.52 | 6.04 | C[C@@H]1C[C@H](N)C[C@H](c2ccncc2NC(=O)c2csc(-c3c(F)cccc3F)n2)C1 [Example 45, N-(4-((1R,3S,5S)-3-amino-5-methylcyclohexyl)pyridin-3-yl)-2-(2,6-difluorophenyl)thhiazole-4-carboxamide]
